Measured values taken from US20120282187A1 (BOEHRINGER INGELHEIM INTERNATIONAL GMBH, priority 2008, published 2012).
Read-outs that look alike come from different tables or passages of the source.

Tests used:
[1] = Solid state and solubility properties; assay type: physicochemical
[2] = test system: patients with chronic atrial fibrillation; experiment: PETRO phase 2 12-week dose finding study; assay type: in vivo, human
Text: Primary endpoints were bleeding events and changes in D-dimer. […] Minor bleeding was dose related.

[3] = test system: patients with atrial fibrillation
Procedure: The PETRO-Ex study was conducted in 52 centers in the United States, Denmark, The Netherlands, and Sweden.
PETRO-Ex began while the PETRO study was ongoing and investigators were initially kept blinded to patient treatment group until PETRO was completed. Unblinding investigators to patient treatment was possible thereafter.
Data were summarized descriptively; no hypothesis was to be tested. Events were analyzed on the basis of the treatment at onset. Incidences were reported as of patients with events as well as normalized to 100 patient-years on the respective treatment.
Patients who were down titrated to 50 mg q.d. based on a glomerular filtration rate≦50 mL/min during PETRO were excluded from the long-term trial; patients down-titrated in other dose levels remained on the q.d. treatment at that dose.
The total exposure reflects both trials, PETRO and PETRO-Ex, together.

In the case of CCCCCCOC(=O)NC(=N)c1ccc(NCc2nc3cc(C(=O)N(CCC(=O)OCC)c4ccccn4)ccc3n2C)cc1 [Dabigatran etexilate, 1-methyl-2-[N-[4-(N-n-hexyloxycarbonylamidino)phenyl]aminomethyl]benzimidazol-5-ylcarboxylic acid-N-(2-pyridyl)-N-(2-ethoxycarbonylethyl)amides], the hygroscopicity [1] is reported as “hygroscopic”, the solubility in water [1] is reported as “sparingly soluble in water” and the Major bleeding events ([2]; 300 mg b.i.d. plus ASA groups) is reported as 6%. The “major bleeding events, number” value ([2]; 300 mg b.i.d. plus ASA groups) was “Four”, the Minor bleeding ([2]; 50, 150, 300 mg b.i.d.) was “dose related” and the “Elevated transaminases >3× upper limit of normal (ULN)” value ([2]; all dabigatran etexilate-treated patients) was 0.9%. The “Elevated transaminases >3× upper limit of normal (ULN), number of patients” value ([2]; of 432 dabigatran etexilate-treated patients) was 4, the “ALT or AST >2xULN, number” value ([3]; 50 mg b.i.d.) was 0 and the “ALT or AST >3xULN and Bili >2xULN within 30 days, number” value ([3]; 50 mg b.i.d.) was 0. The “ALT or AST >3xULN, number” value ([3]; 50 mg b.i.d.) was 0, the “ALT or AST >5xULN, number” value ([3]; 50 mg b.i.d.) was 0 and the “Adverse Events leading to premature discontinuation, number” value (“Adverse Events leading … number” below) ([3]; 50 mg b.i.d.) was 5. The “Adverse Events leading to premature discontinuation, rate” value (“Adverse Events leading … rate” for short) ([3]; 50 mg b.i.d.) was 21.3 per 100 patient-years, the “MI, number” value ([3]; 50 mg b.i.d.) was 0 and the “Major Bleeds with aspirin, number” value ([3]; 50 mg b.i.d.) was 0. The “Major Bleeds without aspirin, number” value ([3]; 50 mg b.i.d.) was 0, the “Major Bleeds, number” value ([3]; 50 mg b.i.d.) was 0 and the “Other MACE, number” value ([3]; 50 mg b.i.d.) was 2. The “Stroke and Systemic Thromboembolism, number” value ([3]; 50 mg b.i.d.) was 3, the “TIA, number” value ([3]; 50 mg b.i.d.) was 0 and the “ALT or AST >2xULN, number” value ([3]; 50 mg q.d.) was 0. For the same molecule, the “ALT or AST >3xULN and Bili >2xULN within 30 days, number” value ([3]; 50 mg q.d.) was 0, the “ALT or AST >3xULN, number” value ([3]; 50 mg q.d.) was 0 and the “ALT or AST >5xULN, number” value ([3]; 50 mg q.d.) was 0. The “Adverse Events leading … number” value ([3]; 50 mg q.d.) was 0, the “MI, number” value ([3]; 50 mg q.d.) was 0 and the “Major Bleeds with aspirin, number” value ([3]; 50 mg q.d.) was 0. The “Major Bleeds without aspirin, number” value ([3]; 50 mg q.d.) was 0, the “Major Bleeds, number” value ([3]; 50 mg q.d.) was 0 and the “Other MACE, number” value ([3]; 50 mg q.d.) was 0. The “Stroke and Systemic Thromboembolism, number” value ([3]; 50 mg q.d.) was 0, the “TIA, number” value ([3]; 50 mg q.d.) was 0 and the “ALT or AST >2xULN, number” value ([3]; 150 mg b.i.d.) was 21. For the same molecule, the “ALT or AST >2xULN, rate” value ([3]; 150 mg b.i.d.) was 3.1 per 100 patient-years, the “ALT or AST >3xULN and Bili >2xULN within 30 days, number” value ([3]; 150 mg b.i.d.) was 3 and the “ALT or AST >3xULN and Bili >2xULN within 30 days, rate” value ([3]; 150 mg b.i.d.) was 0.4 per 100 patient-years. For the same molecule, the “ALT or AST >3xULN, number” value ([3]; 150 mg b.i.d.) was 13, the “ALT or AST >3xULN, rate” value ([3]; 150 mg b.i.d.) was 1.9 per 100 patient-years and the “ALT or AST >5xULN, number” value ([3]; 150 mg b.i.d.) was 7. For the same molecule, the “ALT or AST >5xULN, rate” value ([3]; 150 mg b.i.d.) was 1.0 per 100 patient-years, the “Adverse Events leading … number” value ([3]; 150 mg b.i.d.) was 67 and the “Adverse Events leading … rate” value ([3]; 150 mg b.i.d.) was 9.8 per 100 patient-years. For the same molecule, the “MI, number” value ([3]; 150 mg b.i.d.) was 6, the “Major Bleeds with aspirin, number” value ([3]; 150 mg b.i.d.) was 11 and the “Major Bleeds with aspirin, rate” value ([3]; 150 mg b.i.d.) was 8.7 per 100 patient-years. The “Major Bleeds without aspirin, number” value ([3]; 150 mg b.i.d.) was 18, the “Major Bleeds without aspirin, rate” value ([3]; 150 mg b.i.d.) was 3.2 per 100 patient-years and the “Major Bleeds, number” value ([3]; 150 mg b.i.d.) was 29. The “Major Bleeds, rate” value ([3]; 150 mg b.i.d.) was 4.2 per 100 patient-years, the Major bleeding events ([3]; 150 mg b.i.d.) was 4.2 % per year and the “Other MACE, number” value ([3]; 150 mg b.i.d.) was 7. For the same molecule, the “Stroke and Systemic Thromboembolism, number” value ([3]; 150 mg b.i.d.) was 7, the “TIA, number” value ([3]; 150 mg b.i.d.) was 1 and the “fatal major bleeds, number” value ([3]; 150 mg b.i.d.) was 4. For the same molecule, the “ALT or AST >2xULN, number” value ([3]; 150 mg q.d.) was 2, the “ALT or AST >2xULN, rate” value ([3]; 150 mg q.d.) was 3.4 per 100 patient-years and the “ALT or AST >3xULN and Bili >2xULN within 30 days, number” value ([3]; 150 mg q.d.) was 0. The “ALT or AST >3xULN, number” value ([3]; 150 mg q.d.) was 0, the “ALT or AST >5xULN, number” value ([3]; 150 mg q.d.) was 0 and the “Adverse Events leading … number” value ([3]; 150 mg q.d.) was 8. The “Adverse Events leading … rate” value ([3]; 150 mg q.d.) was 13.7 per 100 patient-years, the “MI, number” value ([3]; 150 mg q.d.) was 0 and the “Major Bleeds with aspirin, number” value ([3]; 150 mg q.d.) was 0. For the same molecule, the “Major Bleeds without aspirin, number” value ([3]; 150 mg q.d.) was 3, the “Major Bleeds without aspirin, rate” value ([3]; 150 mg q.d.) was 6.5 per 100 patient-years and the “Major Bleeds, number” value ([3]; 150 mg q.d.) was 3. For the same molecule, the “Major Bleeds, rate” value ([3]; 150 mg q.d.) was 5.1 per 100 patient-years, the “Other MACE, number” value ([3]; 150 mg q.d.) was 0 and the “Stroke and Systemic Thromboembolism, number” value ([3]; 150 mg q.d.) was 3. For the same molecule, the “TIA, number” value ([3]; 150 mg q.d.) was 0, the “ALT or AST >2xULN, number” value ([3]; 300 mg b.i.d.) was 4 and the “ALT or AST >2xULN, rate” value ([3]; 300 mg b.i.d.) was 4.9 per 100 patient-years. The “ALT or AST >3xULN and Bili >2xULN within 30 days, number” value ([3]; 300 mg b.i.d.) was 0, the “ALT or AST >3xULN, number” value ([3]; 300 mg b.i.d.) was 2 and the “ALT or AST >3xULN, rate” value ([3]; 300 mg b.i.d.) was 2.4 per 100 patient-years. For the same molecule, the “ALT or AST >5xULN, number” value ([3]; 300 mg b.i.d.) was 1, the “ALT or AST >5xULN, rate” value ([3]; 300 mg b.i.d.) was 1.2 per 100 patient-years and the “Adverse Events leading … number” value ([3]; 300 mg b.i.d.) was 21. The “Adverse Events leading … rate” value ([3]; 300 mg b.i.d.) was 25.6 per 100 patient-years and the “MI, number” value ([3]; 300 mg b.i.d.) was 0.
